Assay results taken from ChEMBL document CHEMBL3244339, “Antitumor 1-(X-aryl)-3,3-dialkyltriazenes. 1. Quantitative structure-activity relationships vs. L1210 leukemia in mice” (J Med Chem, 1978).
The source made the active and inactive calls. The calls are words filed in the database; no cut-off is given here.

Legend:
L1210 [1] = experiment: Antitumor activity against mouse L1210 cells allografted in mouse assessed as increase of host lifespan; assay type: functional
Mus musculus = organism: Mus musculus; experiment: Toxicity in mouse L1210 cells allografted mouse assessed as mortality up to 5 days; assay type: organism-based; details: l1210, 120 h
[2] = Aqueous phase distribution coefficient, log P of the compound in 0.01 M NaOH; assay type: physicochemical
L1210 [3] = experiment: Antitumor activity against mouse L1210 cells allografted in mouse assessed as increase of host lifespan of 110 days; assay type: functional, cell-based
[4] = Octanol-saturated water partition coefficient, log D of the compound; assay type: physicochemical
[5] = Distribution coefficient, log P of the compound; assay type: physicochemical; details: octanol/water

Structure (SMILES) | log(1/C) (L1210 [1]) | also measured
CN(C)/N=N/c1nc(Cc2ccccc2)[nH]c1C(N)=O | 2.89 | 
CN(CCO)/N=N/c1ccccc1Cl |  | Activity (Mus musculus): Toxic
CCCCCCCCN(C)/N=N/c1ccc(C(N)=O)cc1 | 2.84 | 
C=CCN(C)/N=N/c1ccc(NC(N)=O)cc1 | 3.77 | 
CCCCN(C)/N=N/c1n[nH]cc1C(=O)OCC | 3.16 | 
CN(/N=N/c1nc[nH]c1C(N)=O)c1cccs1 | 3.87 | 
CCCN(C)/N=N/c1ccccc1C(=O)O | 3.74 | logP [2]: -1.66
CN(C)/N=N/c1cccc(C(N)=O)c1 | 3.8 | 
CN(/N=N/c1ccc(C(N)=O)cc1)c1cccs1 | 2.9 | 
CN/N=N/c1nc[nH]c1C(=O)N1CCCC1 | 3.28 | 
Cc1ccc(/N=N/N(C)C)cc1 | 3.76 | 
CN(C)/N=N/c1ccccc1I |  | Activity (L1210 [3]): inactive; logP [2]: 3.5
CN(CCO)/N=N/c1ccccc1C(N)=O | 3.07 | 
CN(C)/N=N/c1ccccc1C(=O)NC#N |  | logD [4]: 0.8
CCOC(=O)c1ccc(/N=N/N(C)CC)cc1 | 3.01 | 
CN(C)/N=N/c1ccccc1C(F)(F)F |  | Activity (L1210 [3]): inactive
CCCCN(C)/N=N/c1ccc([N+](=O)[O-])cc1C(N)=O | 3.08 | 
CN(CCO)/N=N/c1ccccc1 |  | Activity (Mus musculus): Toxic; logP [2]: 1.71
CN(C)/N=N/c1ccc(C(N)=O)cc1C(N)=O | 3.27 | 
CCCc1nc(/N=N/N(C)C)c(C(N)=O)[nH]1 | 3.42 | 
CN(CCc1ccccc1)/N=N/c1nc[nH]c1C(N)=O | 3.49 | 
CN(C)/N=N/c1ccccc1C#N |  | Activity (L1210 [3]): inactive
CN(C)/N=N/c1cccc(Cl)c1 |  | Activity (Mus musculus): Toxic
CN(C)/N=N/c1ccc([N+](=O)[O-])cc1C(=O)O |  | Activity (L1210 [3]): inactive
CCCN(C)/N=N/c1n[nH]cc1C(N)=O | 3.7 | 
CCCCN(C)/N=N/c1c(C(N)=O)n[nH]c1C | 3.83 | 

Structure (SMILES) | log(1/C) (L1210 [1]) | also measured
COC(=O)c1cccc(/N=N/N(C)C)c1 | 3.42 | 
CN(C)/N=N/c1ccc([N+](=O)[O-])cc1 |  | Activity (Mus musculus): Toxic
CN(C)/N=N/c1ccc(SC#N)cc1C(N)=O |  | Activity (L1210 [3]): inactive
CN(C)/N=N/c1cccc([N+](=O)[O-])c1 |  | Activity (Mus musculus): Toxic; logD [4]: 2.75
CN(C)/N=N/c1ccc(S(N)(=O)=O)cc1C(N)=O | 3.32 | 
CCN(C)/N=N/c1ccc(C(N)=O)cc1 | 3.66 | 
C=CCN(C)/N=N/c1ccccc1C(N)=O | 3.43 | 
CN(C)/N=N/c1ccccc1Cl | 3.26 | logP [2]: 2.97
CN(C)/N=N/c1ccc(NC(N)=O)cc1 | 3.97 | logP [5]: 1.25
CN(C)/N=N/c1ccc(C#N)cc1 |  | Activity (Mus musculus): Toxic; logD [4]: 2.39
COC(=O)c1ccc(/N=N/N(C)C)cc1 | 3.2 | 
C=CCN(C)/N=N/c1ccc(C(N)=O)cc1 | 3.38 | logP [5]: 2.09
CN(C)/N=N/c1ccccc1CO |  | Activity (Mus musculus): Toxic; logP [2]: 1.73
CN(C)/N=N/c1ccccc1C(=O)O | 3.64 | 
CN(C)/N=N/c1c(F)cccc1F | 3.63 | 
CN(C)/N=N/c1ccc(C(=O)O)cc1 | 3.22 | 
CN(C)/N=N/c1cccc(NC(N)=O)c1 |  | Activity (Mus musculus): Toxic
CC(=O)N(C)/N=N/c1ccc(C)cc1 | 2.78 | logP ([5]; read-out: logP): 3.13; logD [4]: 3.13
CN(C)/N=N/c1[nH]cnc1C(N)=O [DACARBAZINE] | 3.29 | 
CN(C)/N=N/c1ccccc1C(=O)NCC(N)=O | 3.25 | logP [5]: 1.17
Cc1nc(/N=N/N(C)C)c(C(N)=O)[nH]1 | 3.06 | 
CN/N=N/c1nc[nH]c1C(=O)OC | 3.35 | 
CCCCCN(C)/N=N/c1nc[nH]c1C(N)=O | 3.58 | 
CNC(=O)c1ccccc1/N=N/N(C)C | 3.25 | logP [5]: 1.83
CCCCN(C)/N=N/c1ccc(CCC(=O)OCC)cc1 | 3.02 | 
COC(=O)c1n[nH]c(C(C)C)c1/N=N/N(C)C | 3.3 | 

Structure (SMILES) | log(1/C) (L1210 [1]) | also measured
CCNC(=O)c1ccccc1/N=N/N(C)C | 2.92 | 
CCCCCCCCN(C)/N=N/c1ccccc1C(=O)O | 3.47 | logP ([5]; read-out: logP): 0.24; logP [2]: 0.24
CN(C)/N=N/c1ccc([N+](=O)[O-])cc1C(N)=O | 3.26 | 
CN(C)/N=N/c1ccccc1C(=O)NCC(F)(F)F |  | Activity (L1210 [3]): inactive
CNN(C)/N=N/c1ccc(C(N)=O)cc1 |  | Activity (Mus musculus): Toxic
C/N=N/Nc1ccccc1 | 3.6 | 
CCOC(=O)c1[nH]cnc1/N=N/N(C)C | 3.98 | logP [5]: 0.44
CCOC(=O)CCCc1ccc(/N=N/N(C)C)cc1 | 3.54 | 
CN(C)/N=N/c1ccccc1C(=O)NN |  | Activity (Mus musculus): Toxic; logD [4]: 1.28
CN(CC#N)/N=N/c1ccc(C(N)=O)cc1 |  | Activity (Mus musculus): Toxic
CN(/N=N/c1ccccc1C(=O)NN)C1CCCCC1 | 2.99 | 
CN(/N=N/c1ccccc1C(=O)O)C1CCCCC1 |  | Activity (Mus musculus): Toxic
CN(C)/N=N/c1ccc(S(N)(=O)=O)cc1 | 3.6 | logP [5]: 0.98
CN(C)/N=N/c1cc(C(N)=O)cc(C(N)=O)c1 | 3.27 | logP [5]: 0.22
COc1ccc(/N=N/N(C)C)c(C(=O)O)c1 |  | Activity (Mus musculus): Toxic
CON(C)/N=N/c1ccc(C(N)=O)cc1 |  | Activity (Mus musculus): Toxic
CCCCOC(=O)c1[nH]cnc1/N=N/N(C)C | 3.53 | 
CCOC(=O)c1nc(C)[nH]c1/N=N/N(C)C | 3.35 | 
CN(C)/N=N/c1ccc(C(F)(F)F)cc1 |  | Activity (Mus musculus): Toxic
CN(C)/N=N/c1c(Cl)cc(Cl)cc1C(N)=O | 3.14 | 
COc1ccc(/N=N/N(C)C(=O)c2ccccc2)cc1 | 3.05 | 
CN(C)/N=N/c1cc(C#N)cc(C#N)c1 | 2.78 | logP [5]: 2.18
CN(CCO)/N=N/c1n[nH]cc1C(N)=O | 3.1 | 
CN(C)/N=N/c1c[nH]nc1C(N)=O | 3.42 | 
CN(C)/N=N/c1ccc(Cl)cc1C(N)=O |  | Activity (Mus musculus): Toxic
CC(C)N(C)/N=N/c1ccc(C(N)=O)cc1 | 3.17 | 

Structure (SMILES) | log(1/C) (L1210 [1]) | also measured
CCOC(=O)c1c[nH]nc1/N=N/N(C)C | 3.35 | 
CC(C)CN(C)/N=N/c1nc[nH]c1C(N)=O | 3.51 | 
CC(=O)c1ccc(/N=N/N(C)C)cc1 |  | Activity (Mus musculus): Toxic
CCOC(=O)c1[nH]cnc1/N=N/N(C)CCO | 3.38 | 
Cc1[nH]nc(C(N)=O)c1/N=N/N(C)C | 3.84 | 
COC(=O)c1c[nH]nc1/N=N/N(C)C | 3.49 | logD [4]: 0.04
CN(C)/N=N/c1ccc(CCCC(=O)NN)cc1 | 3.6 | 
CN(C)/N=N/c1ccc(C#N)cc1C(N)=O | 3.46 | 
CN(Cc1ccccc1)/N=N/c1nc[nH]c1C(N)=O | 3.43 | logP ([5]; read-out: logP): 1.54
CN(C)/N=N/c1cccnc1 | 3.46 | 
C=CCN(CC=C)/N=N/c1ccc(C(N)=O)cc1 |  | Activity (Mus musculus): Toxic
CCCN(C)/N=N/c1nc[nH]c1C(N)=O | 3.58 | 
CCCCN(C)/N=N/c1n[nH]cc1C(N)=O | 3.81 | 
CN(C)/N=N/c1ccc(C(N)=O)cc1 | 3.51 | 
CN(C)/N=N/c1cc(Cl)cc(C(N)=O)c1Cl | 3.04 | 
CC(=O)Nc1ccc(/N=N/N(C)C)cc1 | 4.04 | 
CCCCCCCCOC(=O)c1[nH]cnc1/N=N/N(C)C | 3.06 | 
CN(C)/N=N/c1ccc(S(=O)(=O)Nc2ncccn2)cc1 | 3.74 | 
CN(CCO)/N=N/c1ccccc1C#N |  | Activity (Mus musculus): Toxic
CCCCN(C)/N=N/c1ccccc1C(N)=O | 3.1 | 
CCCCN(C)/N=N/c1ccccc1C(=O)O | 3.15 | 
Cc1cccc(/N=N/N(C)C)c1 | 3.4 | 
COc1ccc(CN(C)/N=N/c2ccc(C#N)cc2)cc1 | 2.72 | 
CC(C)Cc1nc(/N=N/N(C)C)c(C(N)=O)[nH]1 | 3.53 | 
CN(CCO)/N=N/c1[nH]cnc1C(N)=O | 3.12 | 
C=CCN(C)/N=N/c1n[nH]cc1C(N)=O | 3.77 | 

Structure (SMILES) | log(1/C) (L1210 [1]) | also measured
CN(C)/N=N/c1n[nH]cc1C(N)=O | 3.49 | logP ([5]; read-out: logP): -0.12
CN/N=N/c1ccc(C)cc1 |  | Activity (Mus musculus): Toxic
CCN(C)/N=N/c1ccc(NC(N)=O)cc1 | 3.87 | 
CN(C)/N=N/c1ccc(NC=O)cc1 | 3.85 | 
CCCN(C)/N=N/c1ccccc1C(N)=O | 3.26 | 
CN(C)/N=N/c1ccc(Cl)cc1C(=O)O |  | Activity (L1210 [3]): inactive
COC(=O)c1[nH]cnc1/N=N/N(C)C | 3.86 | 
CCCCN(C)/N=N/c1[nH]cnc1C(N)=O | 3.54 | 
C#CCN(C)/N=N/c1nc[nH]c1C(N)=O | 3.61 | 
CCCCN(C)/N=N/c1ccc(C(N)=O)cc1 | 3.47 | logD [4]: 2.46
CCCCCCCCN(C)/N=N/c1nc[nH]c1C(N)=O | 3 | logP ([5]; read-out: logP): 3.2; logP [2]: 3.22
CCOC(=O)c1ccc(/N=N/N(C)CC(C)C)cc1 | 2.8 | 
COc1ccc(C(N)=O)cc1/N=N/N(C)C | 3.95 | logP [5]: 0.44
CN(C)/N=N/c1ccc(Cl)cc1 |  | Activity (Mus musculus): Toxic
CCCCCCCCN(C)/N=N/c1ccc(Cl)cc1C(=O)O | 3.14 | 
COC(=O)c1ccccc1/N=N/N(C)CC(C)C | 3.12 | 
CN(CCc1ccccc1)/N=N/c1n[nH]cc1C(N)=O | 3.52 | 
CCOC(=O)c1[nH]c(-c2ccccc2)nc1/N=N/N(C)C | 3.48 | 
CN(C)/N=N/c1ccccc1C(=O)NCC#N | 3.22 | logP [5]: 1.79
CC(=O)c1cccc(/N=N/N(C)C)c1 | 3.58 | 
CN(C)/N=N/c1ccccc1[N+](=O)[O-] | 3.28 | 
CN(Cc1ccccc1)/N=N/c1ccccc1 | 3.03 | 
CONC(=O)c1ccccc1/N=N/N(C)C |  | Activity (Mus musculus): Toxic
